Measurements from US20230116703A1, “NOVEL ERGOLINES AND METHODS OF TREATING MOOD DISORDERS” (priority 2021, published 2023).
Where two headings read alike, the source gives them in different places.

Experiments:
5-HT2A receptor [1] = target: T1, 5-HT2A receptor (Homo sapiens, UniProt P28223); test: biochemical; assay type: binding; conditions: for 5-HT2A receptor binding affinity / potency (in words): radioligand binding
T1 construct: host or cells: HEK293
Method: Affinity of the test compounds for the 5-HT2A receptor was determined in radioligand binding experiments with [^3H]ketanserin by WuXi AppTec (Hong Kong) Limited, using methods adapted from the literature and under conditions described in Table 1.

5-HT2A receptor [2] = target: T1, 5-HT2A receptor; test: cell-based; assay type: cell-based
Method: (§1) Functional Assays at 5-HT2A, 5-HT2B, and 5-HT1A. Agonist activity at 5-HT2A, 5-HT2B, and 5-HT1A receptors was determined using a FLIPR Ca^2+ flux assay at WuXi AppTec (Hong Kong) Limited according to their standard protocols. Briefly, stably transfected cells expressing the receptor of interest (HEK293 for 5-HT2A and 5-HT2B; CHO cells for 5-HT1A) were grown and plated in a 384 well plate and incubated at 37° C. and 5% CO2 overnight. A solution of 250 mM probenecid in 1 mL FLIPR assay buffer was prepared fresh. This was combined with a fluorescent dye (Fluo-4 Direct™) to make a final assay concentration of 2.5 mM. […] The fluorescent dye was then added to the assay plate along with assay buffer to a final volume of 40 μL. The cell plate was incubated for 50 min at 37° C. and 5% CO2 and placed into the FLIPR Tetra along with the compound plate. 10 μL of references and compounds were then transferred from the compound plate into the cell plate and the fluorescent signal was read.

5-HT1A receptor = target: T2, 5-HT1A receptor (Homo sapiens, UniProt P08908); test: cell-based
T2 construct: host or cells: CHO cells
T2 sequence (P08908 1-422): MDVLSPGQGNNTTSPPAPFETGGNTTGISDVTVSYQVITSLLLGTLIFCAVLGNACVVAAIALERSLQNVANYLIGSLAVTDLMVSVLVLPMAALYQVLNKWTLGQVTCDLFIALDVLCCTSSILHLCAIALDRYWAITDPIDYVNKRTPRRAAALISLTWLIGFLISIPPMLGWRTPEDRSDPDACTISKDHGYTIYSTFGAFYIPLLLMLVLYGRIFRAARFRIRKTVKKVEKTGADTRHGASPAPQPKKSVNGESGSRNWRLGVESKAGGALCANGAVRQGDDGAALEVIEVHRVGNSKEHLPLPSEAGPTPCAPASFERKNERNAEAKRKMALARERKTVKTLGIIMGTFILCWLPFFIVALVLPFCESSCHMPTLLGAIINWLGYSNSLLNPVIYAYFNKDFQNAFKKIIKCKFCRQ
Method: as §1

5-HT2B receptor = target: T3, 5-HT2B receptor (Homo sapiens, UniProt P41595); test: cell-based
T3 construct: host or cells: HEK293
Method: as §1

5-HT1B receptor = 5-HT1B receptor (Homo sapiens, UniProt P28222); test: cAMP accumulation agonist assay at 5-HT1B; assay type: cell-based
Method: Disclosed compounds were tested for agonist activity at several serotonin receptor subtypes (5-HT2A, […], 5-HT2C, and 5-HT1A) using Ca^2+ flux functional assays and the 5-HT1B receptor using a cAMP accumulation assay, with the results summarized in Table 4. […] Potent agonist activity was also observed at the other serotonin receptors tested, although the selectivity profile among the receptors varied across compounds. […]. However, at the same time, the N-propyl compounds were more efficacious agonists at 5-HT2B than the corresponding N-methyl compounds. The selectivity of disclosed compounds for 5-HT2A over 5-HT2C and 5-HT1A was less predictable and varied widely across compounds, ranging from ˜1:6 to ˜20:1 (2C/2A) in the case of 5-HT2C and from ˜1:4 to >100:1 (1A/2A) in the case of 5-HT1A. […] An azetidinyl amide substituent tended to increase potency at 5-HT1A relative to 5-HT2A.
Functional Assay at 5-HT1B. Agonist activity at 5-HT1B was determined using a cAMP accumulation protocol at WuXi AppTec (Hong Kong) Limited according to their standard protocols. Briefly, stably transfected cells were plated in an OptiPlate-384 well plate, incubated at RT for 60 mins, and cAMP standard solution (800 nM, 10 μL) was added to the blank well. Then, 10 μL detection reagent was added to each well, the plate incubated for 60 mins at RT, and the plate read using EnVision.

[3] = Metabolic stability in human liver microsomes (HLM); assay type: in vitro ADME; conditions: both sexes, human, pH 7.4, 0.50 mg protein per mL
From the text: HLM Stability. Pooled HLM from adult male and female donors (Corning 452117) were used.

[4] = 1 nM [^3H]ketanserin, HEK293 stable cell line, read-out: 5-HT2A Receptor Ki (nM) ([^3H]ketanserin)
[5] = Ca^2+ flux, agonist, read-out: 5-HT2A EC50
[6] = Ca^2+ flux, agonist, read-out: 5-HT1A EC50
[7] = Ca^2+ flux, agonist, read-out: 5-HT2B EC50
[8] = cAMP, agonist, read-out: 5-HT1B EC50

T1 sequence (P28223 whole entry): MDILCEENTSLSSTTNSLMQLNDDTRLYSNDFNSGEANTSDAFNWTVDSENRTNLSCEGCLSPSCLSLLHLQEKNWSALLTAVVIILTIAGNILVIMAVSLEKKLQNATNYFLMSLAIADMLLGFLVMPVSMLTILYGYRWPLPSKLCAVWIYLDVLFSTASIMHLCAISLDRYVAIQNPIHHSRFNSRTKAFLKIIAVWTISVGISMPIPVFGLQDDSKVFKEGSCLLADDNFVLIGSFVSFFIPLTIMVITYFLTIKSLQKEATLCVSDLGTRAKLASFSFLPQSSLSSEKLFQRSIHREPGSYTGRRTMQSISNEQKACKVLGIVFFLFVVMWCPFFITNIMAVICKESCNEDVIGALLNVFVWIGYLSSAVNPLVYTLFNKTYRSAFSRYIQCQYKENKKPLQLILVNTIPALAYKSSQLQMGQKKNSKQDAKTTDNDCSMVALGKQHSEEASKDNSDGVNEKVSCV
T3 sequence (P41595 whole entry): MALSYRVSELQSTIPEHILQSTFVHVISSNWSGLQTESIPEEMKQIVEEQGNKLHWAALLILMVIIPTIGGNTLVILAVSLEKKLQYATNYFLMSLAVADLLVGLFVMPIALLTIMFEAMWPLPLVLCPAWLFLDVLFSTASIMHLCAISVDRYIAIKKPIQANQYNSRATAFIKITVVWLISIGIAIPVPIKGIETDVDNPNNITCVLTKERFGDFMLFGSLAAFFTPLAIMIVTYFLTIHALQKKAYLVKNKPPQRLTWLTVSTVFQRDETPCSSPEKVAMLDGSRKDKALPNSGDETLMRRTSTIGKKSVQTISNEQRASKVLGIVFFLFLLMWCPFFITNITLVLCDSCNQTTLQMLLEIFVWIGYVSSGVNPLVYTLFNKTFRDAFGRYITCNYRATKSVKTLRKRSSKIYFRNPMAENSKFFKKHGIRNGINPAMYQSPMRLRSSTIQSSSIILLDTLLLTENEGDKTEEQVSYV
Sequence of 5-HT1B receptor (P28222 whole entry): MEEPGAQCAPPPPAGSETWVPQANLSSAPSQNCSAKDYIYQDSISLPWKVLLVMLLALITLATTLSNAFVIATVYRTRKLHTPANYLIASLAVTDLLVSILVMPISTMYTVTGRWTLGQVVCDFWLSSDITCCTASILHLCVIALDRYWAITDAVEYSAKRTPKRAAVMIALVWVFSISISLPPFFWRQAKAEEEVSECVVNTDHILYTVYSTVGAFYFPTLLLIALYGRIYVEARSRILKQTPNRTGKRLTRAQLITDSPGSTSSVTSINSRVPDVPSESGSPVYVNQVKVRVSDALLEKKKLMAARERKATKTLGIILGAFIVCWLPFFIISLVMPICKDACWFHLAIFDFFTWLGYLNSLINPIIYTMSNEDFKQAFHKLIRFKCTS

| Structure (SMILES) | Ki (5-HT2A receptor [1]; [4]) [nM] | 5-HT2A receptor binding affinity / potency (in words) (5-HT2A receptor [1]) | 5-HT2A % Act @ Max Dose (5-HT2A receptor [2]; Ca^2+ flux, agonist) [%] | EC50 (5-HT2A receptor [2]; [5]) [nM] | 5-HT1A % Act @ Max Dose (5-HT1A receptor; Ca^2+ flux, agonist) [%] | EC50 (5-HT1A receptor; [6]) [nM] | 5-HT2B % Act @ Max Dose (5-HT2B receptor; Ca^2+ flux, agonist) [%] | EC50 (5-HT2B receptor; [7]) [nM] | 5-HT1B % Act @ Max Dose (5-HT1B receptor; cAMP, agonist) [%] | EC50 (5-HT1B receptor; [8]) [nM] | half-life at 1 μM ([3]; pooled human liver microsomes) [min] | microsomal CLint at 1 μM ([3]; pooled human liver microsomes) [µL/min/mg] | Ki (5-HT2A receptor [1]) [nM] | EC50 (5-HT2A receptor [2]) [nM] | EC50 (5-HT1A receptor) [nM] | EC50 (5-HT2B receptor) [nM] | EC50 (5-HT1B receptor) [nM] | half-life at 1 μM ([3]; microsomes) [min] | microsomal CLint at 1 μM ([3]; microsomes) [µL/min/mg] |
| --- | --- | --- | --- | --- | --- | --- | --- | --- | --- | --- | --- | --- | --- | --- | --- | --- | --- | --- | --- |
| CCCN1C[C@H](C(=O)N(CC)CC)C=C2c3cccc4c3C(CN4)C[C@H]21 (mixture of isomers) [Compound 36, (6aR,9R)—N,N-diethyl-7-propyl-4,5,5a,6,6a,7,8,9-octahydroindolo[4,3-fg]quinoline-9-carboxamide] | 10.7 | reduced in potency | 77.54 | 50.4 | 88.68 | 4.84 | 110.53 | 627 | 97.51 | 22.7 | 32.8 | 42.2 | – | – | – | – | – | – | – |
| CCN(CC)C(=O)[C@@H]1C=C2c3cccc4c3C(CN4)C[C@H]2N(C)C1 (mixture of isomers) [Compound 37, (6aR,9R)—N,N-diethyl-7-methyl-4,5,5a,6,6a,7,8,9-octahydroindolo[4,3-fg]quinoline-9-carboxamide] | 11.4 | reduced in potency | 76.37 | 76.6 | 108.98 | 17.2 | 24.06 | 465 | 90.74 | 19.4 | > 145 | < 9.6 | – | – | – | – | – | – | – |
| CCCN1C[C@H](C(=O)N(CC)CC)C=C2c3cccc4[nH]c(Br)c(c34)C[C@H]21 [Compound 9, (6aR,9R)-5-bromo-N,N-diethyl-7-propyl-4,6,6a,7,8,9-hexahydroindolo[4,3-fg]quinoline-9-carboxamide] | 1.11 | – | 75.81 | 228 | 101.39 | 96.5 | 89.6 | 400 | 81.46 | 264 | 9.9 | 140 | – | – | – | – | – | – | – |
| C[C@H]1C[C@H](C)N1C(=O)[C@@H]1C=C2c3cccc4[nH]cc(c34)C[C@H]2N(CCCF)C1 [Compound 26, ((2S,4S)-2,4-dimethylazetidin-1-yl)((6aR,9R)-7-(3-fluoropropyl)-4,6,6a,7,8,9-hexahydroindolo[4,3-fg]quinolin-9-yl)methanone] | 11.3 | – | 83.23 | 15.6 | 97.94 | 3.63 | 100.66 | 431 | 77.16 | 734 | 20.5 | 67.7 | – | – | – | – | – | – | – |
| C=CCN1C[C@H](C(=O)N2[C@@H](C)C[C@@H]2C)C=C2c3cccc4[nH]cc(c34)C[C@H]21 [Compound 27, ((6aR,9R)-7-allyl-4,6,6a,7,8,9-hexahydroindolo[4,3-fg]quinolin-9-yl)((2S,4S)-2,4-dimethylazetidin-1-yl)methanone] | 8.96 | – | 81.1 | 12 | 90.8 | 2.97 | 96.0 | 351 | 96.92 | 88.7 | 16.1 | 86.1 | – | – | – | – | – | – | – |
| CCN(CC)C(=O)[C@@H]1C=C2c3cccc4[nH]c(Br)c(c34)C[C@H]2N(C)C1 [Compound 35, (6aR,9R)-5-bromo-N,N-diethyl-7-methyl-4,6,6a,7,8,9-hexahydroindolo[4,3-fg]quinoline-9-carboxamide] | – | – | 67.74 | – | −1.58 | – | −0.13 | – | 76.8 | – | – | – | 0.73 | 66.4 | > 3160 | > 10000 | 214 | 24.2 | 57.4 |
| CN1C[C@H](C(=O)N(CCF)CCF)C=C2c3cccc4[nH]cc(c34)C[C@H]21 [Compound 38, (6aR,9R)—N,N-bis(2-fluoroethyl)-7-methyl-4,6,6a,7,8,9-hexahydroindolo[4,3-fg]quinoline-9-carboxamide] | 0.84 | – | 93.39 | 11.8 | 90.5 | 3.45 | 28.13 | 22.1 | 94.72 | 4.65 | 64 | 21.6 | – | – | – | – | – | – | – |
| CCN(CC)C(=O)[C@@H]1C=C2c3cccc4[nH]cc(c34)C[C@H]2N(CCF)C1 [Compound 39, (6aR,9R)—N,N-diethyl-7-(2-fluoroethyl)-4,6,6a,7,8,9-hexahydroindolo[4,3-fg]quinoline-9-carboxamide] | 4.54 | – | 95.52 | 16.2 | 91.21 | 239 | 85.46 | 137 | 99.00 | 1100 | 31.7 | 43.8 | – | – | – | – | – | – | – |
